Measured values: ChEMBL document CHEMBL3045183, “Bioefficacy of violacein against Asian armyworm Spodoptera litura Fab. (Lepidoptera: Noctuidae)” (2012)
≈ marks a conversion by molar mass, not a printed value. Calls of active or inactive are those of the source. The calls are words filed in the database; no cut-off is given here.

Assays:
[1] = system: Spodoptera litura; experiment: Larvicidal activity Spodoptera litura third-instar larva fed on 125 ppm compound pre-treated castor leaf disks for 24 hr followed by larval maintenance on fresh castor leaves assessed as insect mortality measured after 96 hr; format: functional
[2] = system: Spodoptera litura; experiment: Antifeedant activity against Spodoptera litura third-instar larva fed on 500 ppm compound pre-treated castor leaf disks measured after 24 hr by leaf-disk no-choice method (reference value: 2.09 +/- 0.94%); format: functional
[3] = system: Spodoptera litura; experiment: Larvicidal activity Spodoptera litura third-instar larva fed on 1000 ppm compound pre-treated castor leaf disks for 24 hr followed by larval maintenance on fresh castor leaves assessed as insect mortality measured after 96 hr; format: functional
[4] = system: Spodoptera litura; experiment: Insecticidal activity Spodoptera litura third-instar larva fed on 250 ppm compound pre-treated castor leaf disks for 24 hr followed by larval maintenance on fresh castor leaves assessed as total mortality (reference value: 8%); format: functional
[5] = system: Spodoptera litura; experiment: Antifeedant activity against Spodoptera litura third-instar larva fed on compound pre-treated castor leaf disks measured after 24 hr by leaf-disk no-choice method (reference value: 2.09 +/- 0.94%); format: functional; conditions: for LC50: Spodoptera litura, foliar
[6] = system: Spodoptera litura; experiment: Larvicidal activity Spodoptera litura third-instar larva fed on 250 ppm compound pre-treated castor leaf disks for 24 hr followed by larval maintenance on fresh castor leaves assessed as insect mortality measured after 96 hr; format: functional
[7] = system: Spodoptera litura; experiment: Pupicidal activity Spodoptera litura third-instar larva fed on 125 ppm compound pre-treated castor leaf disks for 24 hr followed by larval maintenance on fresh castor leaves until pupae formation assessed as pupal mortality (reference value: 8.0 +/- 4.47%); format: functional
[8] = system: Spodoptera litura; experiment: Larvicidal activity Spodoptera litura third-instar larva fed on 500 ppm compound pre-treated castor leaf disks for 24 hr followed by larval maintenance on fresh castor leaves assessed as insect mortality measured after 96 hr; format: functional
[9] = system: Spodoptera litura; experiment: Pupicidal activity Spodoptera litura third-instar larva fed on 250 ppm compound pre-treated castor leaf disks for 24 hr followed by larval maintenance on fresh castor leaves until pupae formation assessed as pupal mortality (reference value: 8.0 +/- 4.47%); format: functional
[10] = system: Spodoptera litura; experiment: Antifeedant activity against Spodoptera litura third-instar larva fed on 125 ppm compound pre-treated castor leaf disks measured after 24 hr by leaf-disk no-choice method (reference value: 2.09 +/- 0.94%); format: functional
[11] = system: Spodoptera litura; experiment: Insecticidal activity Spodoptera litura third-instar larva fed on 125 ppm compound pre-treated castor leaf disks for 24 hr followed by larval maintenance on fresh castor leaves assessed as total mortality (reference value: 8%); format: functional
[12] = system: Spodoptera litura; experiment: Larvicidal activity Spodoptera litura third-instar larva fed on compound pre-treated castor leaf disks for 24 hr followed by larval maintenance on fresh castor leaves assessed as insect mortality measured after 96 hr; format: functional; conditions: for LC50: Spodoptera litura, foliar
[13] = system: Spodoptera litura; experiment: Antifeedant activity against Spodoptera litura third-instar larva fed on 250 ppm compound pre-treated castor leaf disks measured after 24 hr by leaf-disk no-choice method (reference value: 2.09 +/- 0.94%); format: functional
[14] = system: Spodoptera litura; experiment: Antifeedant activity against Spodoptera litura third-instar larva fed on 1000 ppm compound pre-treated castor leaf disks measured after 24 hr by leaf-disk no-choice method (reference value: 2.09 +/- 0.94%); format: functional
[15] = system: Helicoverpa armigera; experiment: Antifeedant activity against Helicoverpa armigera at 1000 ppm; format: functional
[16] = system: Spodoptera litura; experiment: Insecticidal activity Spodoptera litura third-instar larva fed on 1000 ppm compound pre-treated castor leaf disks for 24 hr followed by larval maintenance on fresh castor leaves assessed as induction of abnormalities; format: functional, organism-based
[17] = system: Spodoptera litura; experiment: Insecticidal activity Spodoptera litura third-instar larva fed on 1000 ppm compound pre-treated castor leaf disks for 24 hr followed by larval maintenance on fresh castor leaves assessed as total mortality (reference value: 8%); format: functional
[18] = system: Spodoptera litura; experiment: Insecticidal activity Spodoptera litura third-instar larva fed on 500 ppm compound pre-treated castor leaf disks for 24 hr followed by larval maintenance on fresh castor leaves assessed as total mortality (reference value: 8%); format: functional
[19] = system: Spodoptera litura; experiment: Pupicidal activity Spodoptera litura third-instar larva fed on 500 ppm compound pre-treated castor leaf disks for 24 hr followed by larval maintenance on fresh castor leaves until pupae formation assessed as pupal mortality (reference value: 8.0 +/- 4.47%); format: functional
[20] = system: Spodoptera litura; experiment: Pupicidal activity Spodoptera litura third-instar larva fed on 1000 ppm compound pre-treated castor leaf disks for 24 hr followed by larval maintenance on fresh castor leaves until pupae formation assessed as pupal mortality (reference value: 8.0 +/- 4.47%); format: functional
[21] = system: Chironomus riparius; experiment: Larvicidal activity against Chironomus riparius; format: functional

Row | Compound | mortality [1] [%] | AFI [2] [%] | mortality [3] [%] | mortality [4] [%] | LC90 [5] [ppm] | LC50 [5] [µg/mL] | mortality [6] [%] | mortality [7] [%] | mortality [8] [%] | mortality [9] [%] | AFI [10] [%] | mortality [11] [%] | LC90 [12] [ppm] | LC50 [12] [µg/mL] | AFI [13] [%] | AFI [14] [%] | also measured
1 | C/C=C(\C)C(=O)O[C@H]1C[C@@H](OC(C)=O)[C@@]2(C(=O)OC)CO[C@H]3[C@@H](O)[C@@](C)([C@]45O[C@@]4(C)[C@@H]4C[C@H]5O[C@@H]5OC=C[C@@]54O)[C@H]4[C@]1(CO[C@]4(O)C(=O)OC)[C@@H]32 [AZADIRACHTIN A] | 57.33 | 70.49 | 100 | 98.28 | 3278.46 | 134 (≈ 186 µM) | 70.21 | 28 | 93.55 | 28 | 49.67 | 85.33 | 412.78 | 119 (≈ 165 µM) | 61.31 | 79.41 | –
2 | O=C1NC(c2c[nH]c3ccc(O)cc23)=C/C1=C1\C(=O)Nc2ccccc21 [VIOLACEIN] | 29.11 | 55.16 | 77.1 | 77.99 | 3649.91 | 392 (≈ 1140 µM) | 53.99 | 22 | 68.88 | 24 | 28.66 | 51.11 | 2016.71 | 255 (≈ 743 µM) | 39.69 | 72.46 | AFI [15]: >80%; Activity [16]: Active; mortality [17]: 99.1%; mortality [18]: 89.58%; mortality [19]: 20.7%; mortality [20]: 22%
3 | [C-]#[N+][C@@H]1[C@H]2c3c[nH]c4cccc(c34)C(C)(C)[C@H]2CC[C@@]1(C)C=C [12-EPI-HAPALINDOLE J ISONITRILE] | – | – | – | – | – | – | – | – | – | – | – | – | – | – | – | – | Activity [21]: 100%
